Experimental data taken from patent US8987256B2, “Oxo-heterocyclic substituted carboxylic acid derivatives and the use thereof” (Bayer Intellectual Property GmbH, priority 2008, dated 2015).

Columns and labels:
[1] = biological target: T1, recombinant guanylate cyclase reporter cell line (Rattus norvegicus, UniProt P20595); test: sGC-activating activity in the CHO reporter cell in vitro; format: cell-based
T1 construct: expressed in transfected cells; host or cells: CHO reporter cell line
T1 sequence (P20595 1-619): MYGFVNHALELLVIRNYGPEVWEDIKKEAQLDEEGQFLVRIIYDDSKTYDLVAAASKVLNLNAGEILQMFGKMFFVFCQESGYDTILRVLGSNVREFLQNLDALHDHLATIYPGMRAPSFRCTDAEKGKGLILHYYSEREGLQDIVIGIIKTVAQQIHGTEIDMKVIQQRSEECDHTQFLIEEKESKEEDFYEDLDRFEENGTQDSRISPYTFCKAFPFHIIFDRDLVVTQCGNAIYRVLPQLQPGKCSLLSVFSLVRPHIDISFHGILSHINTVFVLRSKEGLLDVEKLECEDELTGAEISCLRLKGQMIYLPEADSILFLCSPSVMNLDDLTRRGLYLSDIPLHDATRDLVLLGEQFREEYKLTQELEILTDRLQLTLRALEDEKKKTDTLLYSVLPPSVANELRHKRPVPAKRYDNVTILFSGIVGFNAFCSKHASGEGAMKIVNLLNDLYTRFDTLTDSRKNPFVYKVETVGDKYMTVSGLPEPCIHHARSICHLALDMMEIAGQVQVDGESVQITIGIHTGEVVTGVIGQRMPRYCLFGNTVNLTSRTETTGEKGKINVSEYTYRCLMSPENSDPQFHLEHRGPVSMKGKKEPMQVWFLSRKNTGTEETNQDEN
T1 sequence (P19686 1-690 partner): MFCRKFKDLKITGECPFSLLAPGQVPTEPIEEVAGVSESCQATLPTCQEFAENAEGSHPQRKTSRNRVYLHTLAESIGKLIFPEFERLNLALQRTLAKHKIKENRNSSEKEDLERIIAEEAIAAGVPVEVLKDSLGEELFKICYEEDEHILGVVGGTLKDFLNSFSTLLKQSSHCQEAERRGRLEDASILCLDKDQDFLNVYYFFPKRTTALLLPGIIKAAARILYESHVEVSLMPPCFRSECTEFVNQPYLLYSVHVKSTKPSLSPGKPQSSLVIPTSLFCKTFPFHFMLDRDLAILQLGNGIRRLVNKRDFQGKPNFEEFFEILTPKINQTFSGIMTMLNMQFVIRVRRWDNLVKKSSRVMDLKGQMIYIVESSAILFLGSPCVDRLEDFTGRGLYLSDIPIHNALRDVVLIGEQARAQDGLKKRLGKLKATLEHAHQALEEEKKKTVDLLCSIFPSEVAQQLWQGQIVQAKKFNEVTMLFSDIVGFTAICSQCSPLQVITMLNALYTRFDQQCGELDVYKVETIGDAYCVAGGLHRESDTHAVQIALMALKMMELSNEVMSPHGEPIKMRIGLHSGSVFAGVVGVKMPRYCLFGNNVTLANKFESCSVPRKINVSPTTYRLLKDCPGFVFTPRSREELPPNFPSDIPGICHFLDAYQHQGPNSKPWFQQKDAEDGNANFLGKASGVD
Description: The cellular action of the compounds according to the invention is determined at a recombinant guanylate cyclase reporter cell line, as described in F. Wunder et al., Anal. Biochem. 339, 104-112 (2005).

[2] = biological target: T2, soluble guanylate cyclase (sGC) (Rattus norvegicus, UniProt P20595); test: Activating action at the sGC enzyme in vitro (PPi detection, luciferase); format: biochemical; details: for EC50: read-out: EC50 (concentration at 50% of maximum efficacy), activating action at the sGC enzyme
T2 construct: made in house; host or cells: baculovirus/Sf9 insect cells
T2 sequence (P20595 1-619): T1 sequence (P20595 1-619)
T2 sequence (P19686 1-690 partner): T1 sequence (P19686 1-690 partner)
Description: Soluble guanylate cyclase (sGC) converts on stimulation GTP into cGMP and pyrophosphate (PPi). PPi is detected with the aid of the assay described below. The signal produced in the assay increases as the reaction progresses and serves as a measure of the sGC enzyme activity under the given stimulation.
To carry out the assay, 29 μl of enzyme solution [0-10 nM soluble guanylate cyclase (prepared according to Honicka et al., J. Mol. Med. 77, 14-23 (1999)) in 50 mM TEA, 2 mM MgCl2, 0.1% BSA (fraction V), 0.005% Brij®, pH 7.5] are initially introduced into a microplate, and 1 μl of the substance to be tested (as a serially diluted solution in DMSO) is added. The mixture is incubated at room temperature for 10 min. Then 20 μl of detection mix [1.2 nM Firefly Luciferase (Photinus pyralis luciferase, Promega), 29 μM dehydroluciferin (prepared according to Bitler & McElroy, Arch. Biochem. Biophys. 72, 358 (1957)), 122 μM luciferin (Promega), 153 μM ATP (Sigma) and 0.4 mM DTT (Sigma) in 50 mM TEA, 2 mM MgCl2, 0.1% BSA (fraction V), 0.005% Brij®, pH 7.5] are added. The enzyme reaction is started by adding 20 μl of substrate solution [1.25 mM guanosine 5′-triphosphate (Sigma) in 50 mM TEA, 2 mM MgCl2, 0.1% BSA (fraction V), 0.005% Brij®, pH 7.5] and measured continuously in a luminometer. The extent of the stimulation by the substance to be tested can be determined relative to the signal of the unstimulated reaction.
The activation of heme-free guanylate cyclase is examined by addition of 25 μM of 1H-1,2,4-oxadiazolo[4,3-a]quinoxalin-1-one (ODQ) to the enzyme solution and subsequent incubation for 30 minutes and compared to the stimulation of the native enzyme.

## O=C(O)c1ccc(CNC(=O)C(c2ccc(Cn3nc(-c4ccc(Cl)cc4)c4ccccc4c3=O)cc2)C2CCCC2)cc1 (racemic) [Example 1, 4-({[(4-{[4-(4-Chlorophenyl)-1-oxophthalazin-2(1H)-yl]methyl}phenyl)(cyclopentyl)acetyl]-amino}methyl)benzenecarboxylic acid]
[1]
  MEC (minimum effective concentration), sGC-activating activity in the CHO reporter cell: 10 nM

## O=C(O)c1ccc(CNC(=O)C(c2ccc(Cn3nc(-c4ccc(Cl)cc4)c4ccccc4c3=O)cc2)C2CCCC2)nc1 (racemic) [Example 11, 6-({[(4-{[4-(4-chlorophenyl)-1-oxophthalazin-2(1H)-yl]-methyl}phenyl)(cyclopentyl)acetyl]amino}methyl)-pyridine-3-carboxylic acid]
[1]
  MEC (minimum effective concentration), sGC-activating activity in the CHO reporter cell: 300 nM

## O=C(O)CCc1cccc(NC(=O)C(c2ccc(Cn3nnc4ccccc4c3=O)cc2)C2CCCC2)c1 (racemic) [Example 21, 3-{3-[(cyclopentyl{4-[(4-oxo-1,2,3-benzotriazin-3(4H)-yl)methyl]phenyl}acetyl)amino]phenyl}-propanoic acid]
[1]
  MEC (minimum effective concentration), sGC-activating activity in the CHO reporter cell: 30 nM

## O=C(O)CCc1cccc(NC(=O)C(c2ccc(Cn3nc(-c4ccccc4)oc3=O)cc2)C2CCCC2)c1 (racemic) [Example 22]
[1]
  MEC (minimum effective concentration), sGC-activating activity in the CHO reporter cell: 300 nM

## Cc1c(CCC(=O)O)cccc1NC(=O)C(c1ccc(CN2CCN(c3cccc(Cl)c3)C2=O)cc1)C1CCCC1 (racemic) [Example 26, 3-(3-{[(4-{[3-(3-chlorophenyl)-2-oxoimidazolidin-1-yl]methyl}phenyl)(cyclopentyl)acetyl]amino}-2-methylphenyl)propanoic acid]
[1]
  MEC (minimum effective concentration), sGC-activating activity in the CHO reporter cell: 300 nM

## Cc1c(CCC(=O)O)cccc1NC(=O)C(c1ccc(Cn2nnc3ccccc3c2=O)cc1)C1CCCC1 (racemic) [Example 29, 3-{3-[(cyclopentyl{4-[(4-oxo-1,2,3-benzotriazin-3(4H)-yl)methyl]phenyl}acetyl)amino]-2-methyl-phenyl}propanoic acid]
[1]
  MEC (minimum effective concentration), sGC-activating activity in the CHO reporter cell: 30 nM

## Cc1c(CCC(=O)O)cccc1NC(=O)C(c1ccc(Cn2nc(-c3ccccc3)oc2=O)cc1)C1CCCC1 (racemic) [Example 30, 3-{3-[(cyclopentyl{4-[(2-oxo-5-phenyl-1,3,4-oxadiazol-3(2H)-yl)methyl]phenyl}acetyl)amino]-2-methylphenyl}propanoic acid]
[1]
  MEC (minimum effective concentration), sGC-activating activity in the CHO reporter cell: 30 nM

## CCC(C)C(C(=O)Nc1cccc(CCC(=O)O)c1)c1ccc(CN2N=C(c3ccccc3)OCC2=O)cc1 (single isomer, unassigned) [Example 62, 3-{3-[(3-Methyl-2-{4-[(5-oxo-2-phenyl-5,6-dihydro-4H-1,3,4-oxadiazin-4-yl)methyl]-phenyl}pentanoyl)amino]phenyl}propanoic acid]
[1]
  MEC (minimum effective concentration), sGC-activating activity in the CHO reporter cell: 3 nM

## CC(C)C(C(=O)Nc1cccc(CCC(=O)O)c1)c1ccc(CN2N=C(c3ccccc3)OCC2=O)cc1 (single isomer, unassigned) [Example 105, 3-{3-[(3-mcthyl-2-{4-[(5-oxo-2-phcnyl-5,6-dihydro-4H-l,3,4-oxadiazin-4-yl)mcthyl]phenyl}butanoyl)-amino]phcnyl}propanoic acid]
[1]
  MEC (minimum effective concentration), sGC-activating activity in the CHO reporter cell: 10 nM

## CC(C)C(C(=O)Nc1ccc(CCC(=O)O)cc1)c1ccc(CN2N=C(c3ccccc3)OCC2=O)cc1 (single isomer, unassigned) [Example 106, 3-{4-[(3-mcthyl-2-{4-[(5-oxo-2-phcny1-5,6-dihydro-4H-1,3,4-oxadiazin-4-yl)mcthyl]phenyl}butanoyl)-amino]phcnyl}propanoic acid]
[1]
  MEC (minimum effective concentration), sGC-activating activity in the CHO reporter cell: 10 nM

## O=C(O)CC[C@H]1CC[C@H](NC(=O)C(c2ccc(CN3N=C(c4ccccc4)OCC3=O)cc2)C2CCCC2)CC1 (single isomer, unassigned) [Example 118, 3-{trans-4-[(cyclopcntyl{4-[(5-oxo-2-phcnyl-5,6-dihydro-4H-1,3,4-oxadiazin-4-yl)mcthyl]phcnyl}acetyl)-amino]cyclohcxyl}propanoic acid]
[1]
  MEC (minimum effective concentration), sGC-activating activity in the CHO reporter cell: 30 nM

## CC(CC(F)(F)F)C(C(=O)Nc1cccc(CC2(C(=O)O)CC2)c1)c1ccc(CN2N=C(c3ccccc3)OCC2=O)cc1 (single isomer, unassigned) [Example 160, 1-{3-[(5,5,5-trifluoro-3-methyl-2-{4-[(5-oxo-2-phenyl-5,6-dihydro-4H-1,3,4-oxadiazin-4-yl)methyl]phenyl}-pentanoyl)amino]benzyl}cyclopropanecarboxylic acid]
[1]
  MEC (minimum effective concentration), sGC-activating activity in the CHO reporter cell: 30 nM
[2]
  MEC (minimum effective concentration), activating action at the sGC enzyme: 3.4 nM
  EC50: 35 nM

## CC(C(C(=O)Nc1cccc(CC2(C(=O)O)CC2)c1)c1ccc(Cn2nc(C(F)(F)F)ccc2=O)cc1)C(F)(F)F (single isomer, unassigned) [Example 181, 1-(3-{[4,4,4-trifluoro-3-methyl-2-(4-{[6-oxo-3-(trifluoromethyl)pyridazin-1(6H)-yl]methyl}-phenyl)-butanoyl]amino}benzyl)cyclopropanecarboxylic acid]
[1]
  MEC (minimum effective concentration), sGC-activating activity in the CHO reporter cell: 0.7 nM
[2]
  MEC (minimum effective concentration), activating action at the sGC enzyme: 1.4 nM
  EC50: 69 nM

## O=C(O)c1ccc(CNC(=O)C(c2ccc(CN3N=C(c4ccccc4)OCC3=O)cc2)C2CCCC2)cc1 (single isomer, unassigned; ent-4) [Example 38, ent-4-{[(Cyclopentyl{4-[(5-oxo-2-phenyl-5,6-dihydro-4H-1,3,4-oxadiazin-4-yl)methyl]phenyl}acetyl)amino]methyl}benzenecarboxylic acid]
[1]
  MEC (minimum effective concentration), sGC-activating activity in the CHO reporter cell: 30 nM

## COCC(C)C(C(=O)Nc1cccc(CCC(=O)O)c1C)c1ccc(CN2N=C(c3ccccc3)OCC2=O)cc1 (centres unmarked) [Example 3, 3-{3-[(4-Methoxy-3-methyl-2-{4-[(5-oxo-2-phenyl-5,6-dihydro-4H-1,3,4-oxadiazin-4-yl)-methyl]phenyl}butanoyl)amino]-2-methylphenyl}propanoic acid]
[1]
  MEC (minimum effective concentration), sGC-activating activity in the CHO reporter cell: 300 nM

## O=C(O)CCc1ccc(Cl)c(NC(=O)C(c2ccc(CN3N=C(c4ccccc4)OCC3=O)cc2)C2CCCC2)c1 (centres unmarked) [Example 187, 3-{4-chloro-3-[(cyclopentyl{4-[(5-oxo-2-phenyl-5,6-dihydro-4H-1,3,4-oxadiazin-4-yl)methyl]-phenyl}acetyl)amino]phenyl}propanoic acid]
[1]
  MEC (minimum effective concentration), sGC-activating activity in the CHO reporter cell: 1 nM
